pEC50, pIC50: −log10 of the molar value. Active and inactive are the calls of the source. No cut-off for these calls is given here.
Assays:
OE33 [1] = assay: Antiproliferative activity against human OE33 cells assessed as reduction in cell viability at 0.003 to 30 uM measured after 5 days by PrestoBlue reagent based fluorescence analysis; type: functional; details: dose 0.003-30 µM, time 5.0 day
FLO-1 = assay: Antiproliferative activity against human FLO-1 cells assessed as reduction in cell viability at 0.003 to 30 uM measured after 5 days by PrestoBlue reagent based fluorescence analysis; type: functional; details: dose 0.003-30 µM, time 5.0 day
cells [2] = details: Homo sapiens, FLO-1, 120 h
Description: Antiproliferative activity against human FLO-1 cells assessed as reduction in cell viability measured after 5 days by PrestoBlue reagent based fluorescence analysis

OE33 [3] = assay: cells; details: Homo sapiens, OE33, 120 h
Description: Antiproliferative activity against human OE33 cells assessed as reduction in cell viability measured after 5 days by PrestoBlue reagent based fluorescence analysis

cells [4] = details: Homo sapiens, SKGT4, 120 h
Description: Antiproliferative activity against human SKGT4 cells assessed as reduction in cell viability measured after 5 days by PrestoBlue reagent based fluorescence analysis

OACp4C = assay: Antiproliferative activity against human OACp4C cells assessed as reduction in cell viability at 0.003 to 30 uM measured after 5 days by PrestoBlue reagent based fluorescence analysis; type: functional; details: dose 0.003-30 µM, time 5.0 day
cells [5] = details: Homo sapiens, MFD-1, 120 h
Description: Antiproliferative activity against human MFD-1 cells assessed as reduction in cell viability measured after 5 days by PrestoBlue reagent based fluorescence analysis

EPC-2 = assay: Antiproliferative activity against human EPC-2 cells assessed as reduction in cell viability at 0.003 to 30 uM measured after 5 days by PrestoBlue reagent based fluorescence analysis; type: functional; details: dose 0.003-30 µM, time 5.0 day
MFD-1 = assay: Antiproliferative activity against human MFD-1 cells assessed as reduction in cell viability at 0.003 to 30 uM measured after 5 days by PrestoBlue reagent based fluorescence analysis; type: functional; details: dose 0.003-30 µM, time 5.0 day
JH-EsoAd1 = assay: Antiproliferative activity against human JH-EsoAd1 cells assessed as reduction in cell viability at 0.003 to 30 uM measured after 5 days by PrestoBlue reagent based fluorescence analysis; type: functional; details: dose 0.003-30 µM, time 5.0 day
CP-A = assay: Antiproliferative activity against human CP-A cells assessed as reduction in cell viability at 0.003 to 30 uM measured after 5 days by PrestoBlue reagent based fluorescence analysis; type: functional; details: dose 0.003-30 µM, time 5.0 day
SKGT4 = assay: Antiproliferative activity against human SKGT4 cells assessed as reduction in cell viability at 0.003 to 30 uM measured after 5 days by PrestoBlue reagent based fluorescence analysis; type: functional; details: dose 0.003-30 µM, time 5.0 day
Aurora kinase A = target: T1, Aurora kinase A (Homo sapiens, UniProt O14965); assay: Inhibition of recombinant AuroraA (unknown origin)
T1 sequence (O14965 whole entry): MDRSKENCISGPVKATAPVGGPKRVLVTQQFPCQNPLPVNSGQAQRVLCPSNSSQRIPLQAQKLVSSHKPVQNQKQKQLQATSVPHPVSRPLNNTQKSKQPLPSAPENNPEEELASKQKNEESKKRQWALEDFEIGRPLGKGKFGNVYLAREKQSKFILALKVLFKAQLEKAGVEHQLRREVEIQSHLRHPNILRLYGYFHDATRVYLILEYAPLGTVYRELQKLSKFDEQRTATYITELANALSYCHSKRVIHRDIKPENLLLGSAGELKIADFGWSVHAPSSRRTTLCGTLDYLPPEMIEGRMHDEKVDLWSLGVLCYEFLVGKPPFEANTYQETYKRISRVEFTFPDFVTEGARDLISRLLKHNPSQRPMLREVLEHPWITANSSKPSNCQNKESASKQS

Compound | Activity (OE33 [1]) | Activity (FLO-1) | further results
CNc1ncc2c(/C=C/C(=O)N3CCC(OC)CC3)nn(CC3OCCO3)c2n1 | inactive | inactive | –
CNc1ncc2c(/C=C/C(=O)N3CCC(OC)CC3)nn(Cc3ccc(OC)cc3)c2n1 | Active; Partial Restoration Of Antiproliferative Activity Observed | Active; Partial Restoration Of Antiproliferative Activity Observed | –
CNc1ncc2c(/C=C/C(=O)N3CCC4(CC3)OCCO4)nn(Cc3cccc(C)c3)c2n1 | Active | Active | pEC50 (cells [2]): 5.91; pEC50 (OE33 [3]): 6.08
CNc1ncc2c(/C=C/C(=O)N3CCC(OC)CC3)nn(Cc3ccc(C)cc3)c2n1 | Active; Partial Restoration Of Antiproliferative Activity Observed | Active; Partial Restoration Of Antiproliferative Activity Observed | –
Nc1ncnc2c1c(/C=C/C(=O)N1CCC(c3ccccc3)CC1)nn2CC1CCCC1 | – | – | pEC50 (cells [2]): ~4.52; pEC50 (OE33 [3]): ~4.52
CNc1ncc2c(/C=C/C(=O)N3CCC(OC)CC3)nn(Cc3ccccc3C(F)(F)F)c2n1 | inactive | inactive | –
CNc1ncc2c(/C=C/C(=O)N3CCC(OC)CC3)nn(CC3CCCCC3)c2n1 | Active | Active | –
CNc1ncc2c(/C=C/C(=O)N3CCC(OC)CC3)nn(CC(C)(C)C)c2n1 | inactive | inactive | –
CN(C)C1CCN(C(=O)/C=C/c2nn(CC3CCCC3)c3ncnc(N)c23)CC1 | inactive | inactive | –
CNc1ncc2c(/C=C/C(=O)N3CCC(CCO)CC3)nn(CC3CCCC3)c2n1 | – | Active | –
CNc1ncc2c(/C=C/C(=O)N3CCC(C)CC3)nn(CC3CCCC3)c2n1 | – | Active | –
Nc1ncnc2c1c(/C=C/C(=O)N1CCCC1)nn2CC1CCCC1 | – | – | pEC50 (cells [2]): ~4.52; pEC50 (OE33 [3]): ~4.52
CNc1ncc2c(/C=C/C(=O)N3CCC(OC)CC3)nn(Cc3cccc(C)c3)c2n1 | Active | Active | pEC50 (cells [2]): 5.60; pEC50 (OE33 [3]): 5.74
CNc1ncc2c(/C=C/C(=O)N3CCC(OC)CC3)nn(CCC(C)C)c2n1 | inactive | inactive | –
CNc1ncc2c(/C=C/C(=O)N3CCOCC3)nn(CC3CCCC3)c2n1 | – | Active | –
CNc1ncc2c(/C=C/C(=O)N3CCC4(CC3)OCCO4)nn(Cc3cccc(C(F)(F)F)c3)c2n1 | – | – | pEC50 (cells [4]): 5.54; Activity (OACp4C): Active; pEC50 (cells [5]): 6.04; Activity (EPC-2): Active; Activity (MFD-1): Active; Activity (JH-EsoAd1): Active; Activity (CP-A): Active; pEC50 (cells [2]): 6.15; Activity (SKGT4): Active; pEC50 (OE33 [3]): 6.25
Nc1ncnc2c1c(/C=C/C(=O)N1CCC(CCO)CC1)nn2CC1CCCC1 | inactive | inactive | –
CNc1ncc2c(/C=C/C(=O)N3CCC(OC)CC3)nn(Cc3ccccc3C)c2n1 | inactive | inactive | –
CNc1ncc2c(/C=C/C(=O)O)nn(CC3CCCC3)c2n1 | inactive | inactive | –
CNc1ncc2c(/C=C/C(=O)N3CCC(N(C)C)CC3)nn(CC3CCCC3)c2n1 | – | Active | –
CNc1ncc2c(/C=C/C(=O)N3CCCC3)nn(CC3CCCC3)c2n1 | – | Active | –
Nc1ncnc2c1c(/C=C/C(=O)N1CCC(O)CC1)nn2CC1CCCC1 | inactive | inactive | –
COC1CCN(C(=O)/C=C/c2nn(CC3CCCC3)c3ncnc(N)c23)CC1 | inactive | inactive | –

Compound | Activity (OE33 [1]) | Activity (FLO-1) | further results
CNc1ncc2c(/C=C/C(=O)N3CCC(c4ccccc4)CC3)nn(CC3CCCC3)c2n1 | – | Active | –
CNc1ncc2c(/C=C/C(=O)N3CCC(OC)CC3)nn(C(C)C)c2n1 | inactive | inactive | –
CC1CCN(C(=O)/C=C/c2nn(CC3CCCC3)c3ncnc(N)c23)CC1 | inactive | inactive | –
CNc1ncc2c(/C=C/C(=O)N3CCC(OC)CC3)nn(Cc3cccc(OC)c3)c2n1 | Active | Active | –
CNc1ncc2c(/C=C/C(=O)N3CCC(OC)CC3)nn(Cc3cccc(C(F)(F)F)c3)c2n1 | – | – | pIC50 (Aurora kinase A): 5.84
CNc1ncc2c(/C=C/C(=O)N3CCCC(OC)C3)nn(Cc3cccc(C)c3)c2n1 (stereo not given) | inactive | inactive | –
CN(C)C1CCCN(C(=O)/C=C/c2nn(CC3CCCC3)c3ncnc(N)c23)C1 (stereo not given) | inactive | inactive | –
CNc1ncc2c(/C=C/C(=O)N3CCC(OC)CC3)nn(CC3CCCC3)c2n1 | – | Active | pEC50 (cells [2]): > 5.05; pEC50 (OE33 [3]): > 5.05
Nc1ncnc2c1c(/C=C/C(=O)N1CCOCC1)nn2CC1CCCC1 | inactive | inactive | –
Nc1ncnc2c1c(/C=C/C(=O)N1CCCCC1)nn2CC1CCCC1 | inactive | inactive | –
CNc1ncc2c(/C=C/C(=O)N3CCC(O)CC3)nn(CC3CCCC3)c2n1 | – | Active | –
CNc1ncc2c(/C=C/C(=O)N3CCCCC3)nn(CC3CCCC3)c2n1 | – | Active | –
COC(=O)/C=C/c1nn(CC2CCCC2)c2ncnc(N)c12 | inactive | inactive | –
CNc1ncc2c(/C=C/C(=O)N3CCCC(N(C)C)C3)nn(CC3CCCC3)c2n1 (stereo not given) | – | Active | –
CNc1ncc2c(/C=C/C(=O)N3CCC(OC)CC3)nn(CC3CCCO3)c2n1 (stereo not given) | inactive | inactive | –
CNc1ncc2c(/C=C/C(=O)N3CCC(OC)CC3)nn(Cc3ccccc3)c2n1 | Active | Active | –
Nc1ncnc2c1c(/C=C/C(=O)O)nn2CC1CCCC1 | inactive | inactive | –
CCOC1CCN(C(=O)/C=C/c2nn(Cc3cccc(C)c3)c3nc(NC)ncc23)CC1 | inactive | inactive | –
CNc1ncc2c(/C=C/C(=O)N3CCC(OC)CC3)nn(Cc3ccc(C(F)(F)F)cc3)c2n1 | Active; Partial Restoration Of Antiproliferative Activity Observed | Active; Partial Restoration Of Antiproliferative Activity Observed | –
CCOC(Cn1nc(/C=C/C(=O)N2CCC(OC)CC2)c2cnc(NC)nc21)OCC | inactive | inactive | –
CNc1ncc2c(/C=C/C(=O)N3CCC(OC)CC3)nn(Cc3ccccc3OC)c2n1 | inactive | inactive | –
CNc1ncc2c(/C=C/C(=O)N3CCC(COC)CC3)nn(Cc3cccc(C)c3)c2n1 | inactive | inactive | –
CNc1ncc2c(/C=C/C(=O)N3CCC(OC)CC3)nn(CC(OC)OC)c2n1 | inactive | inactive | –
